In one series the target is Cytochrome P450 2D6 (Homo sapiens, UniProt P10635). To be noted: bti-tn-5b1-4. Note: in other assays of this panel Not Active means under 50% inhibition at 10 µM.
For series [1], the target named is Mitogen-activated protein kinase 14 (Homo sapiens, UniProt Q16539). Details: species or system Escherichia coli.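 Note: inhibition of p38alpha enzyme activity in a biochemical kinase assay, with myelin basic protein serving as substrate; in other assays of this panel Not Active means under 50% inhibition at 10 µM.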
Chain of Mitogen-activated protein kinase 14 (Q16539 whole entry): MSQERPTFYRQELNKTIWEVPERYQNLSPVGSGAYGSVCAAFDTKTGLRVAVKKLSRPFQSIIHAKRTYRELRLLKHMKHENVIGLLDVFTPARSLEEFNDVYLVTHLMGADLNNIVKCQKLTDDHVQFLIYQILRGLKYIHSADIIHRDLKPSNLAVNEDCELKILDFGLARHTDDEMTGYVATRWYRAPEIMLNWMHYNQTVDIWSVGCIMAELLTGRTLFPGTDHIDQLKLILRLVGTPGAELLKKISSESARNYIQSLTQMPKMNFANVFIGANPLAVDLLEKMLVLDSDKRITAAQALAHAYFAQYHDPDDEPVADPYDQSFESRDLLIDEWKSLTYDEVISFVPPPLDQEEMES
The next series concerns the target Melanocortin receptor 3 (Homo sapiens, UniProt P41968). It counts as cell membranes, Membrane. To be noted: hek293. Note: in other assays of this panel Not Active means under 50% inhibition at 10 µM.
Series [2] concerns the target Voltage-gated inwardly rectifying potassium channel KCNH2 (Homo sapiens, UniProt Q12809). Particulars: hek293. Note: in other assays of this panel Not Active means under 50% inhibition at 10 µM.
Another series deals with T1, Calcitonin receptor (Homo sapiens, UniProt P30988).
T1 sequence (P30988 whole entry): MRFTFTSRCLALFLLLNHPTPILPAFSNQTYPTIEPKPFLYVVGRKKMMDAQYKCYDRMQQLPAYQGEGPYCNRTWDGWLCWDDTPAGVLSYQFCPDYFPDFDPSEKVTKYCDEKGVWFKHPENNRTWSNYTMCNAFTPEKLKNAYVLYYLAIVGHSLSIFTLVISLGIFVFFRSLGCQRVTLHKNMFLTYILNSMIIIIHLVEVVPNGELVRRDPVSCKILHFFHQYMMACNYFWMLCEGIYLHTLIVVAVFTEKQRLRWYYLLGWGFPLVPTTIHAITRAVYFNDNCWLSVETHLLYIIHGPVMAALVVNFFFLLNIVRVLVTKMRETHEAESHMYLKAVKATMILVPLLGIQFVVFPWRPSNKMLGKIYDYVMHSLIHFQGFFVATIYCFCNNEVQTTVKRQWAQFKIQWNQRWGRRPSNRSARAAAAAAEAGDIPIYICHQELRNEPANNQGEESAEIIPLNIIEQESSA
Type of series: cell membranes, Membrane. Particulars: t47d.

The target of the next series is Cytochrome P450 2C9 (Homo sapiens, UniProt P11712). To be noted: bti-tn-5b1-4. Note: in other assays of this panel Not Active means under 50% inhibition at 10 µM.
Chain of Cytochrome P450 2C9 (P11712 whole entry): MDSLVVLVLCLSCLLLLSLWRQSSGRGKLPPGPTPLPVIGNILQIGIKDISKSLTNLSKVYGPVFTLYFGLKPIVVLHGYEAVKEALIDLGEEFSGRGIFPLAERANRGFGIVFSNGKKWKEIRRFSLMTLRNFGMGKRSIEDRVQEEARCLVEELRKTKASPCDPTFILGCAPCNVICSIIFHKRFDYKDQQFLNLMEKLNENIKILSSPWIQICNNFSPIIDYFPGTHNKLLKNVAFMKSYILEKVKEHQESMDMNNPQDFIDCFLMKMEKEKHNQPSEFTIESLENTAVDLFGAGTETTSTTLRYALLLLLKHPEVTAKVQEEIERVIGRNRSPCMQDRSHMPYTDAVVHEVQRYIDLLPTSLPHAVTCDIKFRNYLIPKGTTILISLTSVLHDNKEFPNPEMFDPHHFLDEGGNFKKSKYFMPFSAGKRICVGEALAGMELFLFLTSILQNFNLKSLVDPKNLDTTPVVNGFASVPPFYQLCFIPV
Series [3] concerns the target Platelet-activating factor receptor (Homo sapiens, UniProt P25105). Nature of the series: biochemical. It counts as tissue-based. Particulars: platelet. Note: in other assays of this panel Not Active means under 50% inhibition at 10 µM.
The target of another series is Cytochrome P450 2E1 (Homo sapiens, UniProt P05181). To be noted: bti-tn-5b1-4. Note: in other assays of this panel Not Active means under 50% inhibition at 10 µM.
Chain of Cytochrome P450 2E1 (P05181 whole entry): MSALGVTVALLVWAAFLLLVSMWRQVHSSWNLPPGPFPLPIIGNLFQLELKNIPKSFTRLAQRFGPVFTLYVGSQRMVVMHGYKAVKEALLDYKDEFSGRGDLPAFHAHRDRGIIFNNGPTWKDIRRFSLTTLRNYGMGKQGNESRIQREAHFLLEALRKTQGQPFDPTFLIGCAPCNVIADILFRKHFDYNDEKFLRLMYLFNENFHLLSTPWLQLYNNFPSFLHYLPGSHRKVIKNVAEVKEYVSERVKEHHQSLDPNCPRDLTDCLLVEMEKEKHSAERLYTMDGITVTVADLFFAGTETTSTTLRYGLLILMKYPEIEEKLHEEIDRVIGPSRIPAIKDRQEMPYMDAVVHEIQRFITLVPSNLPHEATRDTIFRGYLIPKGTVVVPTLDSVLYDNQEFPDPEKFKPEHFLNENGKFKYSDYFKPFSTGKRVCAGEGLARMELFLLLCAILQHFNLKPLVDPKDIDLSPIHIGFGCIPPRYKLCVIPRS
Series [4] has as its target Mitogen-activated protein kinase 1 (Homo sapiens, UniProt P28482). Nature of the series: DRUGMATRIX: Protein Serine/Threonine Kinase, ERK2 enzyme inhibition (substrate: Myelin Basic Protein). Details: species or system Escherichia coli. To be noted: Not Active = under 50% inhibition at 10 µM.
The target in another series is Cytochrome P450 2C19 (Homo sapiens, UniProt P33261). To be noted: bti-tn-5b1-4. Note: in other assays of this panel Not Active means under 50% inhibition at 10 µM.
Chain of Cytochrome P450 2C19 (P33261 whole entry): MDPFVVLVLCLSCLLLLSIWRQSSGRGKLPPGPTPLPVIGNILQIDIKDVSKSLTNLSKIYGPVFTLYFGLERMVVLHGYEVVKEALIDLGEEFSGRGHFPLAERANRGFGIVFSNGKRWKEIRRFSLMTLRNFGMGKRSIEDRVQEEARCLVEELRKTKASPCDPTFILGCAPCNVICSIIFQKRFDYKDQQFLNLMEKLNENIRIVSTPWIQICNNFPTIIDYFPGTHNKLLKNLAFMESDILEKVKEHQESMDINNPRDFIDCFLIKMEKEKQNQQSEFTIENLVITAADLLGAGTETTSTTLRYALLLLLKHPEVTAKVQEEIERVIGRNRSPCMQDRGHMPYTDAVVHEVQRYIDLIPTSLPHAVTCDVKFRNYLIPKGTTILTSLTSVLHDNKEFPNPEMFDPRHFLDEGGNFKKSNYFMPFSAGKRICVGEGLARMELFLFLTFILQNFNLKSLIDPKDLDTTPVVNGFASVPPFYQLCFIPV
Series [5] has as its target T2, C-X-C chemokine receptor type 2 (Homo sapiens, UniProt P25025). Note: in other assays of this panel Not Active means under 50% inhibition at 10 µM.
T2 sequence (P25025 whole entry): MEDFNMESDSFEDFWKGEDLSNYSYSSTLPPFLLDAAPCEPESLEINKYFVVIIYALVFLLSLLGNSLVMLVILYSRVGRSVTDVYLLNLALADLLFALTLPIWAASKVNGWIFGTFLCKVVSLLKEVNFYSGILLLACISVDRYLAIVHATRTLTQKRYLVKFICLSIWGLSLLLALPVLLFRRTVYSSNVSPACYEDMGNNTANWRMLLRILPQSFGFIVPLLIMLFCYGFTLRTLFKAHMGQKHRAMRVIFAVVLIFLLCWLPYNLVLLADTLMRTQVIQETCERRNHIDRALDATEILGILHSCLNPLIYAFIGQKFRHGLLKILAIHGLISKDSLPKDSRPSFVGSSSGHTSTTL
It counts as cell membranes, Membrane. To be noted: cho-k1.

The target of a further series is Estrogen receptor beta (Homo sapiens, UniProt Q92731). Particulars: sf9. Note: in other assays of this panel Not Active means under 50% inhibition at 10 µM.
Chain of Estrogen receptor beta (Q92731 whole entry): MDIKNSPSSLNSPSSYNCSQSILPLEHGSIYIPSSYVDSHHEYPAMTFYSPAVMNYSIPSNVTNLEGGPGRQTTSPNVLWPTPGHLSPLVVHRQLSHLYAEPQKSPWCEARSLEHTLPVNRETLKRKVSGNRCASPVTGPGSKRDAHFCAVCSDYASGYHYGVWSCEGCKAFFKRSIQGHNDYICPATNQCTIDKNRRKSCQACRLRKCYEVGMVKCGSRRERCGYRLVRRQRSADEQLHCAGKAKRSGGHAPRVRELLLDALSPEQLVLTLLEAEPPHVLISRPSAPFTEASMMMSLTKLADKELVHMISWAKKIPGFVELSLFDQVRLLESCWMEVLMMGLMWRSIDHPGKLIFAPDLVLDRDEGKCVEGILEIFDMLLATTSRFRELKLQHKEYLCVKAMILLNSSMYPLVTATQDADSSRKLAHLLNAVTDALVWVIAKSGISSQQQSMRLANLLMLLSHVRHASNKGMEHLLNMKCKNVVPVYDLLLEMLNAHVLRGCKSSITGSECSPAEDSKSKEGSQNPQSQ
For another series, the target named is T3, Cytochrome P450 1A2 (Homo sapiens, UniProt P05177). Note: in other assays of this panel Not Active means under 50% inhibition at 10 µM.
T3 sequence (P05177 whole entry): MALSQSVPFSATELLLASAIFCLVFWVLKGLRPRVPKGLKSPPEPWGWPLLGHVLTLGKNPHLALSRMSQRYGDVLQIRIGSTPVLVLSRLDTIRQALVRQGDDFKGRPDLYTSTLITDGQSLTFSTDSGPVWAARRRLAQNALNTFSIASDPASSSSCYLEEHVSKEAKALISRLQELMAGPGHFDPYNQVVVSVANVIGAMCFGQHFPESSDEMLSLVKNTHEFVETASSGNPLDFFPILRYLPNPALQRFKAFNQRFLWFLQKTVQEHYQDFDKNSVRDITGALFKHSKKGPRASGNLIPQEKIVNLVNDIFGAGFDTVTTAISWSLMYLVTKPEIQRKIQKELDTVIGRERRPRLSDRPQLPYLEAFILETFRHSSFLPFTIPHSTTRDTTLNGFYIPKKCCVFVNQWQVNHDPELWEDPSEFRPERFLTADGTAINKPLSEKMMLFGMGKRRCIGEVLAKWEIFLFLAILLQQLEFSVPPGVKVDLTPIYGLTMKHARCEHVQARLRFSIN
To be noted: bti-tn-5b1-4.

Series [6] deals with Sigma non-opioid intracellular receptor 1 (Homo sapiens, UniProt Q99720). Nature of the series: DRUGMATRIX: Sigma1 radioligand binding (ligand: [3H] Haloperidol). Type of series: cell membranes, Jurkat, Membrane. Particulars: jurkat; Not Active = under 50% inhibition at 10 µM.
Chain of Sigma non-opioid intracellular receptor 1 (Q99720 whole entry): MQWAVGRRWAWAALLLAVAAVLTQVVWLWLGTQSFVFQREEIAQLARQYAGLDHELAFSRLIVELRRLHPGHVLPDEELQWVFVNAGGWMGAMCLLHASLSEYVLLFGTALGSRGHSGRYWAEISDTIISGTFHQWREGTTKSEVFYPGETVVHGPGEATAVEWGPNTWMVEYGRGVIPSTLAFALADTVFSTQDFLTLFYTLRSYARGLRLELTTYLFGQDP
Series [7] can be described thus: DRUGMATRIX: GABAA, Chloride Channel, TBOB radioligand binding (ligand: [3H] TBOB). Type of series: cell membranes, Rattus norvegicus, Wistar, Cerebral cortex, Membrane. Particulars: Not Active = under 50% inhibition at 10 µM.
A further series addresses D(3) dopamine receptor (Homo sapiens, UniProt P35462). Description: DRUGMATRIX: Dopamine D3 radioligand binding (ligand: [3H] Spiperone). Type of series: cell membranes, CHO, Membrane. Particulars: cho.
For series [8], the target named is Sodium-dependent noradrenaline transporter (Homo sapiens, UniProt P23975). Description: DRUGMATRIX: Norepinephrine Transporter radioligand binding (ligand: [125I] RTI-55). Type of series: cell membranes, MDCK, Membrane. Particulars: mdck; Not Active = under 50% inhibition at 10 µM.

Chain of D(3) dopamine receptor (P35462 whole entry): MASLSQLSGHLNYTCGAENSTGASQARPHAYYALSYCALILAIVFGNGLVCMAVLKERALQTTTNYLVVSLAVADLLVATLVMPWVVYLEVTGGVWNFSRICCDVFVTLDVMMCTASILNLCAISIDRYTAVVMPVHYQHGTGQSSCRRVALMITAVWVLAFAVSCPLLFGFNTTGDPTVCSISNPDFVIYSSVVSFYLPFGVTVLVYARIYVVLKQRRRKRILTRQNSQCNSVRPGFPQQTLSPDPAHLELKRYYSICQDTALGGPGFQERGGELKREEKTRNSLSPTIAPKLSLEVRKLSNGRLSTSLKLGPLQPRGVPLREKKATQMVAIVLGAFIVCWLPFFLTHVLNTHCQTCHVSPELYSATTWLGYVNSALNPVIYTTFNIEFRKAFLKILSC
Chain of Platelet-activating factor receptor (P25105 whole entry): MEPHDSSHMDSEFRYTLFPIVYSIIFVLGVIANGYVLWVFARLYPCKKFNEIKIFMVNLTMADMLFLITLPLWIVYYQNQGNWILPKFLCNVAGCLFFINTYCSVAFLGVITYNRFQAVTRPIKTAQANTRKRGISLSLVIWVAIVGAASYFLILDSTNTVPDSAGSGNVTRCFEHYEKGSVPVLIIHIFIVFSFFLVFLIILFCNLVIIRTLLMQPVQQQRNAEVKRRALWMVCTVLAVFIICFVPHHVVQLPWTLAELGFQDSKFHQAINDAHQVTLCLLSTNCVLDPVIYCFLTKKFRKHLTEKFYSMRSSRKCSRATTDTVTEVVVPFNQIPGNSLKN
Chain of Melanocortin receptor 3 (P41968 whole entry): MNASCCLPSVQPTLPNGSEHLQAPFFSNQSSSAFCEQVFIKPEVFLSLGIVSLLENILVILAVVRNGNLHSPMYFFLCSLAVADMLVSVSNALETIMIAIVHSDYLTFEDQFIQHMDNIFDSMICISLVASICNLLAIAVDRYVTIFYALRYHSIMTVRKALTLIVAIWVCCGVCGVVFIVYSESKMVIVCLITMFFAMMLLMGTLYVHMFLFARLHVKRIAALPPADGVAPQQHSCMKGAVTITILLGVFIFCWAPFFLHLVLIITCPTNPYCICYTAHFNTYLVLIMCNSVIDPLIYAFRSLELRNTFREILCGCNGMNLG
Chain of Voltage-gated inwardly rectifying potassium channel KCNH2 (Q12809 whole entry): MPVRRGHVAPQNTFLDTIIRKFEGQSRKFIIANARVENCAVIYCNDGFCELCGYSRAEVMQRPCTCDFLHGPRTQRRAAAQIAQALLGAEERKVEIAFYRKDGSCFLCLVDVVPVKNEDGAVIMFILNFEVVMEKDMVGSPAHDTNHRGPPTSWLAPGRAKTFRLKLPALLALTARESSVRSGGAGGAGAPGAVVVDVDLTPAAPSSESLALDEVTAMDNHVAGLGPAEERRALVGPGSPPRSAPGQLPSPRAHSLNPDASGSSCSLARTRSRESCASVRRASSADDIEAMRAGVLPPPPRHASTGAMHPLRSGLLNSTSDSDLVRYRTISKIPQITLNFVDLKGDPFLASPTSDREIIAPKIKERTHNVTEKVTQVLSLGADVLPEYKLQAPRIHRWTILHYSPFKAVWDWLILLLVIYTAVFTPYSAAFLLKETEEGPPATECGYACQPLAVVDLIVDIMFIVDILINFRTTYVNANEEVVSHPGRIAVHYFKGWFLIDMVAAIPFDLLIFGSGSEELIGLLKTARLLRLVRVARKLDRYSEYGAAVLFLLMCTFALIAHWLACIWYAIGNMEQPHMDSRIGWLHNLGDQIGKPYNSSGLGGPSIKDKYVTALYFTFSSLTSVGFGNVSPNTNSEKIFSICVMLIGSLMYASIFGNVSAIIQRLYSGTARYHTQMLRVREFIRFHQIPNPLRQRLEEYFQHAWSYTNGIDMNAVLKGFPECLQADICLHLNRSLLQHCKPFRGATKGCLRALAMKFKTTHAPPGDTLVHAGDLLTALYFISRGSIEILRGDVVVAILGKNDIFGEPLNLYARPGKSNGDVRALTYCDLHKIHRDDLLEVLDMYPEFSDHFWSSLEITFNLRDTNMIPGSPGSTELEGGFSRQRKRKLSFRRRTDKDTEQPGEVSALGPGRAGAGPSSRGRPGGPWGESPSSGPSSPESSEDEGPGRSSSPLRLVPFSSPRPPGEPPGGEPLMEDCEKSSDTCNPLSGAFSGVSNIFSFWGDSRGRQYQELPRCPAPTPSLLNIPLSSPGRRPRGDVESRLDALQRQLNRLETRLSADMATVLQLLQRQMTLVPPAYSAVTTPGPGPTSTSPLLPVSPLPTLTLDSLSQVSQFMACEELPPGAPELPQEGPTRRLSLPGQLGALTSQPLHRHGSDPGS

As to `O=C(CCCN1CCC(O)(c2ccc(Cl)cc2)CC1)c1ccc(F)cc1` [HALOPERIDOL], the concentration for half-maximal inhibition (IC50) entry (against Cytochrome P450 2D6; in [1]; at Melanocortin receptor 3; in series [2]; at Calcitonin receptor; on Cytochrome P450 2C9) was “Not Active” each time. Further, the IC50 result (in series [3]; against Cytochrome P450 2E1; in series [4]; against Cytochrome P450 2C19; in series [5]; on Estrogen receptor beta) was “Not Active” in each case. Further, the 50% inhibitory concentration (IC50) (commonly the point on the concentration scale where inhibition reaches its midpoint) against Cytochrome P450 1A2 is “Not Active”. Further, the Ki result (at Cytochrome P450 2D6; in series [2]; at Cytochrome P450 2C9; on Cytochrome P450 2E1; at Cytochrome P450 2C19; at Cytochrome P450 1A2) was “Not Active” throughout.

Regarding `Nc1nnc(-c2cccc(Cl)c2Cl)c(N)n1` [LAMOTRIGINE], the IC50 entry (at Cytochrome P450 2D6; in series [1]; against Melanocortin receptor 3; on Calcitonin receptor; against Cytochrome P450 2C9; in series [6]) was “Not Active” in each case. In addition, the IC50 entry (in [3]; in series [7]; at D(3) dopamine receptor; at Cytochrome P450 2E1; in [4]; against Cytochrome P450 2C19) was “Not Active” throughout. Also, the concentration for half-maximal inhibition (IC50) entry (in series [5]; on Estrogen receptor beta; at Cytochrome P450 1A2) was “Not Active” in each case. Further, the Ki result (at Cytochrome P450 2D6; on Cytochrome P450 2C9; in series [7]; at Cytochrome P450 2E1; at Cytochrome P450 2C19; on Cytochrome P450 1A2) was “Not Active” throughout.

As to `COC(=O)c1ccc(O)cc1` [METHYLPARABEN], the IC50 entry (at Cytochrome P450 2D6; in series [1]; at Melanocortin receptor 3; in series [2]; at Calcitonin receptor; on Cytochrome P450 2C9) was “Not Active” throughout. In addition, the IC50 entry (in [6]; in [3]; in [7]; on D(3) dopamine receptor; at Cytochrome P450 2E1; in [4]) was “Not Active” in each case. Also, the 50% inhibitory concentration (IC50) entry (at Cytochrome P450 2C19; in [5]; against Estrogen receptor beta; on Cytochrome P450 1A2) was “Not Active” throughout. The Ki result (on Cytochrome P450 2D6; in series [2]; at Cytochrome P450 2C9; in series [7]; at Cytochrome P450 2E1; at Cytochrome P450 2C19) was “Not Active” in each case. Also, the Ki entry at Cytochrome P450 1A2 was “Not Active”.

For the compound `CN1CCN2c3ccccc3Cc3ccccc3C2C1` (stereo not given) [MIANSERIN], the IC50 entry (at Cytochrome P450 2D6; in series [1]; on Melanocortin receptor 3; in series [2]; at Calcitonin receptor; on Cytochrome P450 2C9) was “Not Active” each time. The half-maximal inhibitory concentration (IC50) result (in series [6]; in [3]; on D(3) dopamine receptor; against Cytochrome P450 2E1; in series [4]; against Cytochrome P450 2C19) was “Not Active” throughout. The half-inhibitory concentration (IC50) entry (in [5]; against Estrogen receptor beta) was “Not Active” in each case. Also, the Ki entry (at Cytochrome P450 2D6; in [2]; at Cytochrome P450 2C9; on Cytochrome P450 2E1; on Cytochrome P450 2C19) was “Not Active” in each case.

Regarding `CC(C)(O)c1ccccc1CC[C@@H](SCC1(CC(=O)O)CC1)c1cccc(/C=C/c2ccc3ccc(Cl)cc3n2)c1` [MONTELUKAST], the half-inhibitory concentration (IC50) entry against Cytochrome P450 2D6 was “Not Active”; in [1] (read-out: IC50) it was 856 nM; on Melanocortin receptor 3 it was “Not Active”; in series [2] it was “Not Active”; on Calcitonin receptor, “Not Active”; against Cytochrome P450 2C9, “Not Active”. Further, the IC50 entry (in series [6]; in [3]; against Cytochrome P450 2E1; in series [4]; against Cytochrome P450 2C19; in series [5]) was “Not Active” in each case. Besides, the IC50 entry against Estrogen receptor beta and against Cytochrome P450 1A2 was “Not Active” throughout. Also, the Ki result (at Cytochrome P450 2D6; in series [2]; on Cytochrome P450 2C9; at Cytochrome P450 2E1; at Cytochrome P450 2C19; on Cytochrome P450 1A2) was “Not Active” throughout.

For `NC(CO)(CO)CO` [TROMETHAMINE], the IC50 entry (against Cytochrome P450 2D6; in [1]; against Melanocortin receptor 3; in [2]; on Calcitonin receptor; at Cytochrome P450 2C9) was “Not Active” in each case. Also, the half-inhibitory concentration (IC50) result (in series [6]; in series [3]; in series [8]; in series [7]; on D(3) dopamine receptor; at Cytochrome P450 2E1) was “Not Active” in each case. Further, the IC50 entry (in series [4]; at Cytochrome P450 2C19; in series [5]; against Cytochrome P450 1A2) was “Not Active” in each case. The Ki result (at Cytochrome P450 2D6; in series [2]; at Cytochrome P450 2C9; in series [7]; at Cytochrome P450 2E1; on Cytochrome P450 2C19) was “Not Active” each time. Besides, the Ki result on Cytochrome P450 1A2 is “Not Active”.

For the origin of these results see ChEMBL document CHEMBL1909046, “DrugMatrix in vitro pharmacology data”.
